Source: PubChem BioAssay (NCI)
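These data come from cells grown in 96-well plates and exposed to compound for 48 hours at five concentrations. At the TGI there is no net growth.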

Tests used:
Test in all cases: DTP human tumour cell line panel, 48 h
NCI-H460 lung = system: NCI-H460 lung
LOX IMVI melanoma = system: LOX IMVI melanoma
UACC-62 melanoma = system: UACC-62 melanoma
COLO 205 colon = system: COLO 205 colon
M19-MEL melanoma = system: M19-MEL melanoma
IGROV1 ovarian = system: IGROV1 ovarian
OVCAR-3 ovarian = system: OVCAR-3 ovarian
A549 NSCLC = system: A549 NSCLC
UACC-257 melanoma = system: UACC-257 melanoma
ACHN renal = system: ACHN renal
SF-539 CNS = system: SF-539 CNS
SK-MEL-2 melanoma = system: SK-MEL-2 melanoma
MALME-3M melanoma = system: MALME-3M melanoma
EKVX NSCLC = system: EKVX NSCLC
HCT-15 colon = system: HCT-15 colon
SW-620 colon = system: SW-620 colon
K-562 leukemia = system: K-562 leukemia
SNB-19 CNS = system: SNB-19 CNS
DMS 114 small cell lung = system: DMS 114 small cell lung
U251 CNS = system: U251 CNS
CAKI-1 renal = system: CAKI-1 renal
SK-OV-3 ovarian = system: SK-OV-3 ovarian
SN12C renal = system: SN12C renal
OVCAR-8 ovarian = system: OVCAR-8 ovarian
HCT-116 colon = system: HCT-116 colon
RXF 393 renal = system: RXF 393 renal
SNB-78 CNS = system: SNB-78 CNS
HL-60(TB) leukemia = system: HL-60(TB) leukemia
A498 renal = system: A498 renal
OVCAR-4 ovarian = system: OVCAR-4 ovarian
HCC-2998 colon = system: HCC-2998 colon
LXFL 529 NSCLC = system: LXFL 529 NSCLC
XF 498 CNS = system: XF 498 CNS
SK-MEL-5 melanoma = system: SK-MEL-5 melanoma
M14 melanoma = system: M14 melanoma
MOLT-4 leukemia = system: MOLT-4 leukemia
HOP-92 NSCLC = system: HOP-92 NSCLC
NCI-H226 lung = system: NCI-H226 lung
SF-295 CNS = system: SF-295 CNS
KM20L2 colon = system: KM20L2 colon
786-0 renal = system: 786-0 renal
NCI-H522 lung = system: NCI-H522 lung
HT29 colon = system: HT29 colon
UO-31 renal = system: UO-31 renal
RPMI-8226 leukemia = system: RPMI-8226 leukemia
SK-MEL-28 melanoma = system: SK-MEL-28 melanoma
HOP-62 NSCLC = system: HOP-62 NSCLC
DLD-1 colon = system: DLD-1 colon
TK-10 renal = system: TK-10 renal
NCI-H23 lung = system: NCI-H23 lung
SF-268 CNS = system: SF-268 CNS
OVCAR-5 ovarian = system: OVCAR-5 ovarian
KM12 colon = system: KM12 colon
CCRF-CEM leukemia = system: CCRF-CEM leukemia
SNB-75 CNS = system: SNB-75 CNS
HOP-18 NSCLC = system: HOP-18 NSCLC
DMS 273 small cell lung = system: DMS 273 small cell lung

With CC1=NN(C(=O)Cc2ccccc2)C(=O)/C1=C\c1ccccc1O the TGI (NCI-H460 lung) was greater than 100 µM, the TGI (LOX IMVI melanoma) was greater than 100 µM and the TGI (UACC-62 melanoma) was greater than 100 µM. It also gave a TGI (COLO 205 colon) greater than 100 µM, a TGI (M19-MEL melanoma) greater than 100 µM and a TGI (IGROV1 ovarian) greater than 100 µM. The TGI (OVCAR-3 ovarian) was greater than 100 µM, the TGI (A549 NSCLC) was greater than 100 µM and the TGI (UACC-257 melanoma) was greater than 100 µM. The TGI (ACHN renal) was greater than 100 µM, the TGI (SF-539 CNS) was greater than 100 µM and the TGI (SK-MEL-2 melanoma) was greater than 100 µM. The TGI (MALME-3M melanoma) was greater than 100 µM, the TGI (EKVX NSCLC) was greater than 100 µM and the TGI (HCT-15 colon) was greater than 100 µM. The TGI (SW-620 colon) was greater than 100 µM, the TGI (K-562 leukemia) was greater than 100 µM and the TGI (SNB-19 CNS) was greater than 100 µM. For the same compound, the TGI (DMS 114 small cell lung) was greater than 100 µM, the TGI (U251 CNS) was greater than 100 µM and the TGI (CAKI-1 renal) was greater than 100 µM. For the same compound, the TGI (SK-OV-3 ovarian) was greater than 100 µM, the TGI (SN12C renal) was greater than 100 µM and the TGI (OVCAR-8 ovarian) was greater than 100 µM. The TGI (HCT-116 colon) was greater than 100 µM, the TGI (RXF 393 renal) was greater than 100 µM and the TGI (SNB-78 CNS) was greater than 100 µM. The TGI (HL-60(TB) leukemia) was greater than 100 µM, the TGI (A498 renal) was greater than 100 µM and the TGI (OVCAR-4 ovarian) was greater than 100 µM. For the same compound, the TGI (HCC-2998 colon) was greater than 100 µM, the TGI (LXFL 529 NSCLC) was greater than 100 µM and the TGI (XF 498 CNS) was greater than 100 µM. The TGI (SK-MEL-5 melanoma) was greater than 100 µM, the TGI (M14 melanoma) was greater than 100 µM and the TGI (MOLT-4 leukemia) was greater than 100 µM. For the same compound, the TGI (HOP-92 NSCLC) was greater than 100 µM, the TGI (NCI-H226 lung) was greater than 100 µM and the TGI (SF-295 CNS) was greater than 100 µM. It also gave a TGI (KM20L2 colon) greater than 100 µM, a TGI (786-0 renal) greater than 100 µM and a TGI (NCI-H522 lung) greater than 100 µM. The TGI (HT29 colon) was greater than 100 µM, the TGI (UO-31 renal) was greater than 100 µM and the TGI (RPMI-8226 leukemia) was greater than 100 µM. For the same compound, the TGI (SK-MEL-28 melanoma) was greater than 100 µM, the TGI (HOP-62 NSCLC) was greater than 100 µM and the TGI (DLD-1 colon) was greater than 100 µM. For the same compound, the TGI (TK-10 renal) was greater than 100 µM, the TGI (NCI-H23 lung) was greater than 100 µM and the TGI (SF-268 CNS) was greater than 100 µM. It also gave a TGI (OVCAR-5 ovarian) greater than 100 µM, a TGI (KM12 colon) greater than 100 µM and a TGI (CCRF-CEM leukemia) greater than 100 µM.

With O=S1c2ccccc2NC(c2ccc3ccccc3c2)CC1c1ccccc1 (stereo not given) the TGI (NCI-H460 lung) was 47.1 µM, the TGI (LOX IMVI melanoma) was 33.7 µM and the TGI (UACC-62 melanoma) was greater than 100 µM. It also gave a TGI (COLO 205 colon) of 74.4 µM, a TGI (M19-MEL melanoma) of 43.3 µM and a TGI (IGROV1 ovarian) of 40.5 µM. It also gave a TGI (SNB-75 CNS) of 86.6 µM, a TGI (OVCAR-3 ovarian) of 35.1 µM and a TGI (A549 NSCLC) greater than 100 µM. For the same compound, the TGI (UACC-257 melanoma) was greater than 100 µM, the TGI (ACHN renal) was 52.2 µM and the TGI (SF-539 CNS) was 41.1 µM. It also gave a TGI (SK-MEL-2 melanoma) greater than 100 µM, a TGI (MALME-3M melanoma) greater than 100 µM and a TGI (EKVX NSCLC) of 63.9 µM. It also gave a TGI (HCT-15 colon) of 54 µM, a TGI (SW-620 colon) of 42.7 µM and a TGI (K-562 leukemia) of 37.5 µM. For the same compound, the TGI (SNB-19 CNS) was greater than 100 µM, the TGI (HOP-18 NSCLC) was greater than 100 µM and the TGI (CAKI-1 renal) was 79 µM. It also gave a TGI (SK-OV-3 ovarian) greater than 100 µM, a TGI (SN12C renal) greater than 100 µM and a TGI (OVCAR-8 ovarian) of 57 µM. For the same compound, the TGI (RXF 393 renal) was 30.5 µM, the TGI (HL-60(TB) leukemia) was 55.3 µM and the TGI (OVCAR-4 ovarian) was 53.9 µM. The TGI (HCC-2998 colon) was 36 µM, the TGI (LXFL 529 NSCLC) was 30.5 µM and the TGI (XF 498 CNS) was 52.8 µM. The TGI (SK-MEL-5 melanoma) was 37.9 µM, the TGI (M14 melanoma) was greater than 100 µM and the TGI (MOLT-4 leukemia) was 70.3 µM. The TGI (NCI-H226 lung) was 48.9 µM, the TGI (SF-295 CNS) was 55 µM and the TGI (KM20L2 colon) was 48.9 µM. For the same compound, the TGI (786-0 renal) was 31.1 µM, the TGI (NCI-H522 lung) was 42.4 µM and the TGI (HT29 colon) was 49.6 µM. The TGI (UO-31 renal) was 47.9 µM, the TGI (RPMI-8226 leukemia) was 60.8 µM and the TGI (SK-MEL-28 melanoma) was greater than 100 µM. For the same compound, the TGI (DMS 273 small cell lung) was 91.6 µM, the TGI (HOP-62 NSCLC) was greater than 100 µM and the TGI (DLD-1 colon) was 70.1 µM. It also gave a TGI (TK-10 renal) greater than 100 µM, a TGI (NCI-H23 lung) of 40.1 µM and a TGI (SF-268 CNS) greater than 100 µM. For the same compound, the TGI (OVCAR-5 ovarian) was greater than 100 µM, the TGI (KM12 colon) was 41.7 µM and the TGI (CCRF-CEM leukemia) was 38 µM.
